From ChEMBL document CHEMBL1139779, “3,3-diphenylpentane skeleton as a steroid skeleton substitute: novel inhibitors of human 5alpha-reductase 1” (Bioorg Med Chem Lett, 2007)

B1: 3-oxo-5-alpha-steroid 4-dehydrogenase 1 (Homo sapiens), P18405 (protein)
chain: MATATGVAEERLLAALAYLQCAVGCAVFARNRQTNSVYGRHALPSHRLRVPARAAWVVQELPSLALPLYQYASESAPRLRSAPNCILLAMFLVHYGHRCLIYPFLMRGGKPMPLLACTMAIMFCTCNGYLQSRYLSHCAVYADDWVTDPRFLIGFGLWLTGMLINIHSDHILRNLRKPGDTGYKIPRGGLFEYVTAANYFGEIMEWCGYALASWSVQGAAFAFFTFCFLSGRAKEHHEWYLRKFEEYPKFRKIIIPFLF

Legend:
[1] = target: T1, 3-oxo-5-alpha-steroid 4-dehydrogenase 1 (Homo sapiens, UniProt P18405); test: Inhibition of human 5-alpha reductase 1 expressed in LNCap cells; type: cell-based
T1 sequence (P18405 whole entry): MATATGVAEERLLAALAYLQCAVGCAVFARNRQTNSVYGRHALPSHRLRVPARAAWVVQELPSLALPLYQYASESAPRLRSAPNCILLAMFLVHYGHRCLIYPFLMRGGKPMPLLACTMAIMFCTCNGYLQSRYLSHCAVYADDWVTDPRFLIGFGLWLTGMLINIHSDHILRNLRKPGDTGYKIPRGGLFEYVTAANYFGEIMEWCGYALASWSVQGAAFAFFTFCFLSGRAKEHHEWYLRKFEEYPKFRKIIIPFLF

[2] = target: T2, 3-oxo-5-alpha-steroid 4-dehydrogenase 1 (Homo sapiens) (UniProt P18405); test: Inhibition of human 5-alpha reductase 1 expressed in LNCap cells at 10 uM; type: cell-based
T2 sequence (whole entry): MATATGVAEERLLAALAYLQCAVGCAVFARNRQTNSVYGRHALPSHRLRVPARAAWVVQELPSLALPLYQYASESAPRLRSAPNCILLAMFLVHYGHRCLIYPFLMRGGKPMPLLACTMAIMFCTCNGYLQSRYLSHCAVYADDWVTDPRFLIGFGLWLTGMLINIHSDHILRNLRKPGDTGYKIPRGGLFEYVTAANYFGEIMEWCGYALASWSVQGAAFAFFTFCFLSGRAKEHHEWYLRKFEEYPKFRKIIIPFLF

[3] = target: T2, 3-oxo-5-alpha-steroid 4-dehydrogenase 1 (Homo sapiens); test: Inhibition of human 5-alpha reductase 1 expressed in LNCap cells at 1 uM; type: cell-based
[4] = substrate: CCC(CC)(c1ccc(OC(=O)N(Cc2ccccc2)Cc2ccccc2)cc1)c1ccc(N(C)C(C)=O)cc1; test: Activity of 5-alpha reductase 1 at 1 uM

| Molecule | inhibition [2] [%] | further results |
| --- | --- | --- |
| CCN(CC)C(=O)Oc1ccc(C(CC)(CC)c2ccc(N(C)C(C)=O)cc2)cc1 | 65 | IC50 [1]: 9.2 µM |
| CCC(CC)(c1ccc(OC(=O)N2CCOCC2)cc1)c1ccc(N(C)C(C)=O)cc1 | 15 | – |
| CCC(CC)(c1ccc(OC(=O)N2CCN(C)CC2)cc1)c1ccc(N(C)C(C)=O)cc1 | 17 | – |
| CCC(CC)(c1ccc(OC(=O)N2CCCCC2)cc1)c1ccc(N(C)C(C)=O)cc1 | 68 | IC50 [1]: 4.7 µM |
| CCN(CC)C(=O)Oc1ccc(C(C)(C)c2ccc(N(C)C(C)=O)cc2)cc1 | 16 | – |
| CCN(CC)C(=O)Oc1ccc(C2(c3ccc(N(C)C(C)=O)cc3)CCCC2)cc1 | 5 | – |
| CCC(CC)(c1ccc(OC(=O)N(Cc2ccccc2)Cc2ccccc2)cc1)c1ccc(N(C)C(C)=O)cc1 | – | inhibition [3]: 51%; IC50 [1]: 0.84 µM |
| CCCC(CCC)(c1ccc(OC(=O)N(CC)CC)cc1)c1ccc(N(C)C(C)=O)cc1 | 27 | – |
| CCC(CC)(c1ccc(OC(=O)N(C)C)cc1)c1ccc(N(C)C(C)=O)cc1 | 29 | – |
| CCCCN(CCCC)C(=O)Oc1ccc(C(CC)(CC)c2ccc(N(C)C(C)=O)cc2)cc1 | – | inhibition [3]: 32% |
| CCCN(CCC)C(=O)Oc1ccc(C(CC)(CC)c2ccc(N(C)C(C)=O)cc2)cc1 | 77 | inhibition [3]: 26%; IC50 [1]: 2.9 µM |
| CCN(CC)C(=O)Oc1ccc(C(CC)(CC)c2ccc(NC(C)=O)c(C)c2)cc1C | 17 | – |
| CCC(CC)(c1ccc(OC(=O)N(C(C)C)C(C)C)cc1)c1ccc(N(C)C(C)=O)cc1 | 72 | IC50 [1]: 4 µM |
| CCC(CC)(c1ccc(OC(=O)N2CCCC2)cc1)c1ccc(N(C)C(C)=O)cc1 | 57 | – |
| CCN(CC)C(=O)Oc1ccc(C2(c3ccc(N(C)C(C)=O)cc3)CCCCC2)cc1 | 46 | – |
| CCC(C)N(C(=O)Oc1ccc(C(CC)(CC)c2ccc(N(C)C(C)=O)cc2)cc1)C(C)CC (configuration not stated) | – | inhibition [3]: 22% |
| CCC(CC)(c1ccc(OC(=O)N2CCCCCCC2)cc1)c1ccc(N(C)C(C)=O)cc1 | – | inhibition [3]: 20% |
| CCN(CC)C(=O)Oc1ccc(C(CC)(CC)c2ccc(N(C)C(C)=O)c(C)c2)cc1C | 22 | – |
| CCN(CC)C(=O)Oc1ccc(C2(c3ccc(N(C)C(C)=O)cc3)CCC2)cc1 | 16 | – |
| CCC(CC)(c1ccc(OC(=O)N2CCCCCC2)cc1)c1ccc(N(C)C(C)=O)cc1 | 70 | IC50 [1]: 4.7 µM |
| CCN(CC)C(=O)Oc1ccc(C2(c3ccc(N(C)C(C)=O)cc3)CCCCCC2)cc1 | 25 | – |
| CCN(CC)C(=O)Oc1ccc(C(CC)(CC)c2ccc(N(C)C(C)=O)c(C)c2)cc1 | 25 | – |
| CCN(CC)C(=O)Oc1ccc(C(CC)(CC)c2ccc(N(C)C(C)=O)cc2)cc1C | 56 | – |
| B1 | – | Km [4]: 9.1 µM; Vmax [4]: 13.4 nM/h |
